Source: patent publication US6403554B2, “Polyunsaturated fatty acid derivatives and their use” (Ardenia Investments Ltd., priority 1998, dated 2002)
Entries after “also recorded” stand apart in the source; their conditions may differ.

Assays:
[1] = system: antibody-forming cells (AFC) in the spleen; assay: Influence of compound on humoral immune response to sheep erythrocytes, C57B1/6 female mice (AFC in spleen, hemagglutinins); type: in vivo; conditions: for Amount of antibody-forming cells per 10^6 spleen cells / Amount of antibody-forming cells per spleen / Effect on relative amount of AFC (per 10^6 spleen cells) / Effect on total AFC amount (per spleen) / Effect on hemagglutinin titers / Spleen index / Amount of hemagglutinins: i.v.; for Amount of antibody-forming cells per 10^6 spleen cells / Amount of antibody-forming cells per spleen / Effect on relative amount of AFC (per 10^6 spleen cells) / Effect on total AFC amount (per spleen): 5th day; for Amount of antibody-forming cells per 10^6 spleen cells / Amount of antibody-forming cells per spleen: M ± SEM; for Effect on relative amount of AFC (per 10^6 spleen cells) / Effect on total AFC amount (per spleen) / Effect on hemagglutinin titers: vs control; for Spleen index: with SRBC i.p.; for Amount of hemagglutinins: serum; for immunostimulating action: 91 and 136.5 μg/mouse
[2] = system: antibody-forming cells (AFC) in the spleen; assay: Influence of human AFP/compound complex and compound alone on humoral immune response, C57B1/6 male mice; type: in vivo; conditions: compound alone; for relative amount of AFC / total AFC amount: 5th day
Method: The influence of complexes of AFP with one of the title compounds 1-4, 1a-4a, 5-20 as well as their basic components on humoral immune response was estimated by counting the quantity of antibody-forming cells (AFC) in the mice spleen.
(§1) 0.15 ml of AFP/Compound 3 complex was administered intravenously to 6 mice males of C57B1/6 line (weight 18-22 g) in the dose of […] of AFP and 45.5 μg of compound 3 per capita. Simultaneously suspension of 5·10^7 sheep erythrocytes was injected intraperitoneally (0.2 ml per capita). In the group with compound 3 mice were injected intravenously by one in the dose of 45.5 μg. Animals of group with AFP received 9 μg of AFP. Mice of control group were injected intravenously with equal volume of saline. Complex AFP/Compound 3 effect on humoral immune response was analyzed by counting the quantity of AFC in the spleen according to Cunningham (per 10^6 spleen cells and per spleen).
(§2) 0.15 ml of AFP/Compound 2a complex (1:100) was administered intravenously to 6 mice males of C57B1/6 line (weight 18-22 g) in the dose of 9 μg of AFP and 45.5 μg of compound 2a per capita. Simultaneously, a suspension of 5·10^7 sheep erythrocytes was injected intraperitoneally (0.2 ml per capita). In the group with compound 2a mice were injected intravenously by one in the dose of 45.5 μg. Animals of group with AFP received 9 μg of AFP. Mice in the control group were injected intravenously with an equal volume of saline. The effect of the AFP/Compound 2a complex on humoral immune response was analyzed by counting the quantity of AFC in the spleen according to Cunningham (per 10^6 spleen cells and per spleen).
(§3) 0.15 ml of AFP/Compound 10 complex (1:200) was administered intravenously to 6 male mice of C57B1/6 line (weight 18-22 g) in the dose of 9 μg of AFP and 91 μg of compound 10 per capita. Simultaneously, a suspension of 5·10^7 sheep erythrocytes was injected intraperitoneally (0.2 ml per capita). In the group receiving compound 10 mice were injected intravenously by one in the dose of 91 μg. Animals in the group with AFP received 9 μg of AFP. Micein the control group were injected intravenously with an equal volume of saline. The effect of the AFP/Compound 10 complex on humoral immune response was analyzed by counting the quantity of AFC in the spleen according to Cunningham (per 10^6 spleen cells and per spleen).
as §3, with “AFP/Compound 14” for “AFP/Compound 10”, “compound 14” for “compound 10”, “group with” for “group receiving”, “Animals of” for “Animals in the”, “AFP. Mice in” for “AFP. Micein”

[3] = system: antibody-forming cells (AFC) in the spleen; assay: Humoral immune response: counting antibody-forming cells (AFC) in the spleen according to Cunningham, mice immunised with sheep erythrocytes; type: in vivo, C57B1/6 mice; conditions: compound alone
[4] = system: hemagglutinating antibodies in serum; assay: Humoral immune response: titers of hemagglutinating antibodies in serum; type: in vivo, C57B1/6 mice; conditions: serum, female mice
[5] = system: antibody-forming cells (AFC) in the spleen; assay: Influence of AFP/compound complexes and their components on humoral immune response (AFC in spleen); type: in vivo, C57B1/6 mice
Method: as §1, §2, §3
as §3, with “AFP/Compound 14” for “AFP/Compound 10”, “compound 14” for “compound 10”, “group with” for “group receiving”, “Animals of” for “Animals in the”, “AFP. Mice in” for “AFP. Micein”
0.15 ml of AFP/Compound 7 complex (1:200) was administered intravenously to 6 male mice of C57B1/6 line (weight 18-22 g) in the dose of 9 μg of AFP and 91 μg of compound 7 per capita. Simultaneously, a suspension of 5·10^7 sheep erythrocytes was injected intraperitoneally (0.2 ml per capita). In the group with compound 7 mice were injected intravenously by one in the dose of 91 μg. Animals of group with AFP received 9 μg of AFP. Mice of control group were injected intravenously with equal volume of saline. AFP/Compound 7 complex effect on humoral immune response was analyzed by counting the quantity of AFC in the spleen according to Cunningham (per 10^6 spleen cells and per spleen).
0.15 ml of AFP/Compound 15 complex (1:200) was administered intravenously to 6 mice males of C57B1/6 line (weight 18-22 g) in the dose of 9 μg of AFP and 91 μg of compound 15 per capita. Simultaneously, a suspension of 5·10^7 sheep erythrocytes was injected intraperitoneally (0.2 ml per capita). In the group receiving compound 15, the mice were injected intravenously by one in the dose of 91 μg. Animals in the AFP-group received 9 μg of AFP. […]

Structure (SMILES)	Immunogenic activity ([1]; 45.5 μg/mouse)	Amount of antibody-forming cells per 10^6 spleen cells ([1]; 45.5 μg/mouse)	Amount of antibody-forming cells per spleen ([1]; 45.5 μg/mouse)	Effect on relative amount of AFC (per 10^6 spleen cells) ([1]; 45.5 μg/mouse)	Effect on total AFC amount (per spleen) ([1]; 45.5 μg/mouse)	Effect on hemagglutinin titers ([1]; 45.5 μg/mouse)	Spleen index ([1]; 45.5 μg/mouse)	immunostimulating effect in vivo in micelle form ([1]; 91 μg/mouse)	Amount of antibody-forming cells per 10^6 spleen cells ([1]; 91 μg/mouse)	Amount of antibody-forming cells per spleen ([1]; 91 μg/mouse)	Spleen index ([1]; 91 μg/mouse)	Amount of antibody-forming cells per 10^6 spleen cells ([1]; 136.5 μg/mouse)	Amount of antibody-forming cells per spleen ([1]; 136.5 μg/mouse)	Amount of hemagglutinins ([1]; 136.5 μg/mouse) [Log2 T]	Spleen index ([1]; 136.5 μg/mouse)	immunostimulating action [1]	relative amount of AFC ([2]; 45.5 μg/mouse i.v.)	total AFC amount ([2]; 45.5 μg/mouse i.v.)	Effect on hemagglutinin titers ([1]; 91 μg/mouse)	further results
CC1=C(/C=C/C(C)=C/C=C/C(C)=C/C(=O)N[C@H](C(=O)O)[C@@H](C)OP(=O)(O)O)C(C)(C)CCC1 (relative stereo) [Compound 3, N-(all-trans-Retinoyl)-O-phospho-L-threonine]	no immunogenic activity	472.2±52.4 cells per 10^6 spleen cells	44.6±3.9 × 10^3	+15.9 p > 00.05%	+10.1 p > 0.05%	+4.8 p > 0.05%	6.1 ± 0.3 10^−3	display immunostimulating effect in vivo	827.7±34.6 cells per 10^6 spleen cells	60.3±4.1 × 10^3	6.2 ± 0.2 10^−3	961.3±56.5 cells per 10^6 spleen cells	107.0±8.5 × 10^3	8.7±0.3	6.8 ± 0.3 10^−3	high immunostimulating action	472.2±52.4 cells per 10^6 spleen cells	44.6±3.9 × 10^3	–	Amount of hemagglutinins ([1]; 91 μg/mouse): 8.0±0.3 Log2 T; Immunogenic activity ([2]; 45.5 μg/mouse): no immunogenic activity; also recorded: do not inhibit immunogenic activity
CC1=C(/C=C/C(C)=C/C=C/C(C)=C\C(=O)N[C@@H](COP(=O)(O)O)C(=O)O)C(C)(C)CCC1 (stereo in doubt) [Compound 2a, N-(13-cis-Retinoyl)-O-phospho-L-serine]	no immunogenic activity	264.5±19.9 cells per 10^6 spleen cells	34.0±2.6 × 10^3	−12.8 p > 0.05%	−15.0 p > 0.05%	−7.7 p > 0.05%	6.4 ± 0.2 10^−3	display immunostimulating effect in vivo	585.6±51.6 cells per 10^6 spleen cells	59.4±5.2 × 10^3	6.5 ± 0.2 10^−3	639.8±54.6 cells per 10^6 spleen cells	68.3±6.1 × 10^3	–	7.4 ± 0.4 10^−3	marked immunostimulating action	264.5±19.9 cells per 10^6 spleen cells	34.0±2.6 × 10^3	−3.8 p > 0.05%	Effect on hemagglutinin titers ([1]; 136.5 μg/mouse): +5.1 p > 0.05%
CC1=C(/C=C/C(C)=C/C=C/C(C)=C\C(=O)N[C@@H](COP(=O)(O)O)C(=O)O)C(C)(C)CCC1 (stereo in doubt) [Compound 2a, N-(13-cis-retinoyl)-o-phospho-L-serine]	–	–	–	–	–	–	–	–	–	–	–	–	–	–	–	–	–	–	–	Dose at which immunostimulating effect in vivo is displayed (micelle form) [3]: 91 μg/mouse; Amount of hemagglutinins ([4]; 45.5 μg/mouse i.v.): 7.2 ± 0.3 Log2 T; Amount of hemagglutinins ([4]; 91 μg/mouse i.v.): 7.5 ± 0.2 Log2 T; Amount of hemagglutinins ([4]; 136.5 μg/mouse i.v.): 8.2 ± 0.4 Log2 T; Immunogenic activity ([5]; compound alone, 45.5 μg/mouse): no immunogenic activity; also recorded: do not inhibit immunogenic activity; Dose at which immunostimulating effect in vivo is displayed ([5]; compound in a complex with AFP): 45.5 μg/mouse
CC/C=C\C/C=C\C/C=C\C/C=C\C/C=C\C/C=C\CCC(=O)N[C@@H](COP(=O)(O)O)C(=O)O [Compound 10, N-(cis-4,7,10,13,16,19-docosahexaenoyl)-O-phospho-L-serine]	–	304.9±46.6 cells per 10^6 spleen cells	30.2±5.7 × 10^3	+11.6 p > 0.05%	−3.5 p > 0.05%	+11.4 p > 005%	6.9 ± 0.2 10^−3	–	326.2±65.4 cells per 10^6 spleen cells	34.7±8.5 × 10^3	6.6 ± 0.4 10^−3	651.6±48.2 cells per 10^6 spleen cells	81.1±5.8 × 10^3	8.5±0.4	6.7 ± 0.2 10^−3	–	–	–	+11.4 p > 005%	Effect on relative amount of AFC (per 10^6 spleen cells) ([1]; 91 μg/mouse): +19.4 p > 0.05%; Effect on total AFC amount (per spleen) ([1]; 91 μg/mouse): +10.9 p > 0.05%; Immunogenic activity ([1]; 45.5 and 91 μg/mouse): no immunogenic activity; relative amount of AFC ([2]; 91 μg/mouse i.v.): 326.2±65.4 cells per 10^6 spleen cells; total AFC amount ([2]; 91 μg/mouse i.v.): 34.7±8.5 × 10^3
